The structures appear in SMILES notation.

For one experiment, the target named is T1, EGFR L858R/T790M/C797S (Homo sapiens, UniProt P00533, C797S/L858R/T790M).
T1 construct: expressed in transfected cells; host or cells: BaF3-LTC
Kind of experiment: EGFR degradation HTRF assay in BaF3-LTC cells. In kind it is cell-based. To be noted: BaF3-LTC (L858R/T790M/C797S), maximum percentage of inhibition (degradation); read-out: BaF3-LTC Dmax (%). A digest of the protocol: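 BaF3 cells expressing EGFR L858R/C797S or L858R/T790M/C797S treated 16 h at 37 °C with compounds (top 10 uM, 5-fold, 8 doses; 0.2% DMSO). Remaining EGFR quantified by HTRF in lysates after overnight antibody incubation. Degradation percentage versus DMSO controls; DC50 from four-parameter fit, Dmax as maximal degradation.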

In a further experiment the target is T2, EGFR L858R/C797S (Homo sapiens, UniProt P00533, C797S/L858R).
T2 construct: expressed in transfected cells; host or cells: BaF3 LC
T2 sequence (P00533 25-1210 C797S/L858R): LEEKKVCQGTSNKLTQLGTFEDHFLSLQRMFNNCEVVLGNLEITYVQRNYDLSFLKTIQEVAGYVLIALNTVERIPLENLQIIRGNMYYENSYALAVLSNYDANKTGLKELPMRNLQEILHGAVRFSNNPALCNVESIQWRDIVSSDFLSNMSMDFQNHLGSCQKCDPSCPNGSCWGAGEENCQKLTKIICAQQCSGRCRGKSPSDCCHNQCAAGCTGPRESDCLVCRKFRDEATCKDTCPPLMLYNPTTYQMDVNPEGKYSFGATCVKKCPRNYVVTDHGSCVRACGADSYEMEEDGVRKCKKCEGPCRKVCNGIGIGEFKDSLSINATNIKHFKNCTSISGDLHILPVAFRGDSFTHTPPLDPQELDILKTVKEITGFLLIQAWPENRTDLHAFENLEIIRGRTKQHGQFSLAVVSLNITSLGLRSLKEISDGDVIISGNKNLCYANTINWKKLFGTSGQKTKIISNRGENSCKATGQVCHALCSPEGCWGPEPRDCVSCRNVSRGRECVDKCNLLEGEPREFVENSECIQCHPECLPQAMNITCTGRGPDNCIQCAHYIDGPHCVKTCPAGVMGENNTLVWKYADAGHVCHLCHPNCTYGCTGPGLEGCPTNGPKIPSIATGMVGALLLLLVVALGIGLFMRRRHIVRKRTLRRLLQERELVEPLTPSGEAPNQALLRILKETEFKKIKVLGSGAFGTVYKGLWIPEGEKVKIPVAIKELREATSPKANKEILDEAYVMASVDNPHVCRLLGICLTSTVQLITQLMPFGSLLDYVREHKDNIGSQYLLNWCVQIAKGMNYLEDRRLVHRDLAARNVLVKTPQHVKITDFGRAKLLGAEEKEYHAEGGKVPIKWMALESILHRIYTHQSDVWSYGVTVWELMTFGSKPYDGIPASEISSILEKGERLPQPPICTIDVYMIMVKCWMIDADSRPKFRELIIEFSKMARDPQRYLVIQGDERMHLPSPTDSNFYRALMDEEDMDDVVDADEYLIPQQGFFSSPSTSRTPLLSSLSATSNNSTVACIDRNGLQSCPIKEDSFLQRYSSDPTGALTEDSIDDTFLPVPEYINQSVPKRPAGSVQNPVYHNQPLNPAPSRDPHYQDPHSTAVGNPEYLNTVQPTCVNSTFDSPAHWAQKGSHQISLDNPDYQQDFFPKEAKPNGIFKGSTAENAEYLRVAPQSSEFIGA
Kind of experiment: EGFR degradation HTRF assay in BaF3 LC cells. In kind it is cell-based. The following applies: BaF3 LC (L858R/C797S), maximum percentage of inhibition (degradation); read-out: BaF3 LC Dmax (%). The protocol: BaF3-LTC(L858R/T790M/C797S) cells and BaF3 LC(L858R/C797S) cells are treated with compounds diluted in 0.2% DMSO cell culture medium and incubate for 16 h, 37° C., 5% CO2. the final concentration of compounds in all assay is start with 10 uM, 5-fold dilution, total 8 doses were included.
After 16 h treatment, add HTRF lysis buffer to each well; seal the plate and incubate 1 hour at room temperature on a plate shaker; Once the cells are lysed, 16 μL of cell lysate are transferred to a PE 384-well HTRF detection plate; 4 μL of pre-mixed HTRF antibodies are added to each well; Cover the plate with a plate sealer, spin 1000 rpm for 1 min, Incubate overnight at room temperature; Read on BMG PheraStar with HTRF protocol (337 nm-665 nm-620 nm).
The inhibition (degradation) percentage of the compound was calculated by the following equation: Inhibition percentage of Compound=100−100×(Signal−low control)/(High control−low control), wherein signal=each test compound group
High control=Cell group with added DMSO and without compound, indicating microplate readings without EGFR degradation;
Dmax is the maximum percentage of inhibition (degradation).
The IC50 (DC50) value of a compound can be obtained by fitting the following equation
Y=Bottom+(TOP−Bottom)/(1+((IC50/X)^hillslope))
Wherein, X and Y are known values, and IC50, Hillslope, Top and Bottom are the parameters obtained by fitting with software. Y is the inhibition percentage (calculated from the equation), X is the concentration of the compound; IC50 is the concentration of the compound when the 50% inhibition is reached. The smaller the IC50 value is, the stronger the inhibitory ability of the compound is. Vice versa, the higher the IC50 value is, the weaker the inhibitory ability of the compound is; Hillslope represents the slope of the fitted curve, generally around 1*; Bottom represents the minimum value of the curve obtained by data fitting, which is generally 0%±20%; Top represents the maximum value of the curve obtained by data fitting, which is generally 100%±20%. The experimental data were fitted by calculating and analyzing with Dotmatics data analysis software.

T1 sequence (P00533 25-1210 T790M/C797S/L858R): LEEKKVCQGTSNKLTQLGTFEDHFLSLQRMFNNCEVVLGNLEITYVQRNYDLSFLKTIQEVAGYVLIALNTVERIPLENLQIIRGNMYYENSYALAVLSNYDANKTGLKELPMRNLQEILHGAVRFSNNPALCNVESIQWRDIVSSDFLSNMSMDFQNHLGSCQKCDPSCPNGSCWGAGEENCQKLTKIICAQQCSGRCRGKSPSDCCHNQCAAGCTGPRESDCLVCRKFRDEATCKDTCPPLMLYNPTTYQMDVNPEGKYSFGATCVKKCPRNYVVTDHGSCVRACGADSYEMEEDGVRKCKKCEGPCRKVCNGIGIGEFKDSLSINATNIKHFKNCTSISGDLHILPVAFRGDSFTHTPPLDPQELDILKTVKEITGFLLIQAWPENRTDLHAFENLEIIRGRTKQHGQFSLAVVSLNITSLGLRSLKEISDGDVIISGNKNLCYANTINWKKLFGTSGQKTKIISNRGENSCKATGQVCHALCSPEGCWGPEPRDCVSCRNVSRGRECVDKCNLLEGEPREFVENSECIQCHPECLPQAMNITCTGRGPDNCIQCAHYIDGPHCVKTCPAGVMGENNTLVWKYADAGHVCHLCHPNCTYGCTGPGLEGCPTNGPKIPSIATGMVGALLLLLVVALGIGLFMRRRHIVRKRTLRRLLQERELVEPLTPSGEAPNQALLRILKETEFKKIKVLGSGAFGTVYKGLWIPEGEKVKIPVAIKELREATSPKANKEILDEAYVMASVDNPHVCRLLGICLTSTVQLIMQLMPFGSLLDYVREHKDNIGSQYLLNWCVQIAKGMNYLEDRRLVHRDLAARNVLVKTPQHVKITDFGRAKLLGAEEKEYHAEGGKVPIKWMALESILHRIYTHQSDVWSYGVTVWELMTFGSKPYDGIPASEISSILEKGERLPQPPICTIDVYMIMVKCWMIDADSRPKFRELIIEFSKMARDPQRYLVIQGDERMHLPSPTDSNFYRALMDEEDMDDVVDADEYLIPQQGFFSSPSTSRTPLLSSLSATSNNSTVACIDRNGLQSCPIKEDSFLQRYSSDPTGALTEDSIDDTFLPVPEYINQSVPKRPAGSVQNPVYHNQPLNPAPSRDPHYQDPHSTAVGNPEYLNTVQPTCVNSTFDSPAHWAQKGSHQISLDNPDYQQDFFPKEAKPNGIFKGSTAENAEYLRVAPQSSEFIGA

For `CCc1ccc2c(P(C)(C)=O)c(Nc3nc(Nc4cc(C)c(N5CCC(N6CCN(CCc7cccc8c7n(C)c(=O)n8C7CCC(=O)NC7=O)CC6)CC5)cc4OC4CC4)ncc3Br)ccc2n1` (stereo not drawn) [Example 584, 3-(4-(2-(4-(1-(4-((5-bromo-4-((5-(dimethylphosphoryl)-2-ethylquinolin-6-yl)amino)pyrimidin-2-yl)amino)-5-cyclopropoxy-2-methylphenyl)piperidin-4-yl)piperazin-1-yl)ethyl)-3-methyl-2-oxo-2,3-dihydro-1H-benzo[d]imidazol-1-yl)piperidine-2,6-dione], the results for the greatest degradation seen (Dmax) on EGFR L858R/T790M/C797S and on EGFR L858R/C797S were 95.6% and 92.8%, respectively.

Regarding `CCOc1cc(N2CCC(N3CCN(CCc4cccc5c4oc(=O)n5C4CCC(=O)NC4=O)CC3)CC2)c(CC)cc1Nc1ncc(Br)c(Nc2ccc3nc(CC)ccc3c2P(C)(C)=O)n1` (stereo not drawn) [Example 473, 3-(7-(2-(4-(1-(4-((5-bromo-4-((5-(dimethylphosphoryl)-2-ethylquinolin-6-yl)amino)pyrimidin-2-yl)amino)-5-ethoxy-2-ethylphenyl)piperidin-4-yl)piperazin-1-yl)ethyl)-2-oxobenzo[d]oxazol-3(2H)-yl)piperidine-2,6-dione], the Dmax on EGFR L858R/T790M/C797S worked out at 94.6%; on EGFR L858R/C797S, 85.5%.

For the molecule `CCOc1cc(N2CCC(N3CCN(CCc4cccc5c4C4(CC4)C(=O)N5C4CCC(=O)NC4=O)CC3)CC2)c(CC)cc1Nc1ncc(Br)c(Nc2ccc3nc(CC)ccc3c2P(C)(C)=O)n1` (stereo not drawn) [Example 571, 3-(4′-(2-(4-(1-(4-((5-bromo-4-((5-(dimethylphosphoryl)-2-ethylquinolin-6-yl)amino)pyrimidin-2-yl)amino)-5-ethoxy-2-ethylphenyl)piperidin-4-yl)piperazin-1-yl)ethyl)-2′-oxospiro[cyclopropane-1,3′-indolin]-1′-yl)piperidine-2,6-dione], the Dmax at EGFR L858R/T790M/C797S stood at 93.2%; on EGFR L858R/C797S, 87.7%.

Consider `CCOc1cc(N2CCC(N3CCN(CCc4ccc(F)c5c4oc(=O)n5C4CCC(=O)NC4=O)CC3)CC2)c(CC)cc1Nc1ncc(Br)c(Nc2ccc3nc(CC)ccc3c2P(C)(C)=O)n1` (stereo not drawn) [Example 505, 3-(7-(2-(4-(1-(4-((5-bromo-4-((5-(dimethylphosphoryl)-2-ethylquinolin-6-yl)amino)pyrimidin-2-yl)amino)-5-ethoxy-2-ethylphenyl)piperidin-4-yl)piperazin-1-yl)ethyl)-4-fluoro-2-oxobenzo[d]oxazol-3(2H)-yl)piperidine-2,6-dione], for which the results for the maximal degradation (Dmax) at EGFR L858R/T790M/C797S and on EGFR L858R/C797S were 75.1% and 83.2%, respectively.

Regarding `CCc1ccc2c(P(C)(C)=O)c(Nc3nc(Nc4cc(CC)c(N5CCC(N6CCN(CCc7cc(F)c([C@H]8CCC(=O)NC8=O)c(F)c7)CC6)CC5)cc4OC)ncc3Br)ccc2n1` [Example 484, (R)-3-(4-(2-(4-(1-(4-((5-bromo-4-((5-(dimethylphosphoryl)-2-ethylquinolin-6-yl)amino)pyrimidin-2-yl)amino)-2-ethyl-5-methoxyphenyl)piperidin-4-yl)piperazin-1-yl)ethyl)-2,6-difluorophenyl)piperidine-2,6-dione], the values for the Dmax at EGFR L858R/T790M/C797S and on EGFR L858R/C797S were 95.4% and 91.6%, respectively.

For the molecule `CCc1cc(Nc2ncc(Br)c(Nc3ccc4nc(C)ccc4c3P(C)(C)=O)n2)c(OC)cc1N1CCC(N2CCN(C(=O)[C@@H]3CCN(c4cc(F)c([C@H]5CCC(=O)NC5=O)c(F)c4)C3)CC2)CC1` [Example 750, (R)-3-(4-((R)-3-(4-(1-(4-((5-bromo-4-((5-(dimethylphosphoryl)-2-methylquinolin-6-yl)amino)pyrimidin-2-yl)amino)-2-ethyl-5-methoxyphenyl)piperidin-4-yl)piperazine-1-carbonyl)pyrrolidin-1-yl)-2,6-difluorophenyl)piperidine-2,6-dione], the greatest degradation seen (Dmax) was 95.4% at EGFR L858R/T790M/C797S and 94.3% at EGFR L858R/C797S.

Values taken from US20230248834A1, “DEGRADATION OF (EGFR) BY CONJUGATION OF EGFR INHIBITORS WITH E3 LIGASE LIGAND AND METHODS OF USE” (BEIGENE, LTD., priority 2020, published 2023).
